Data reported in patent US20140205631A1, “Stimulation of vaccination by angiotensin peptides” (University of Southern California, priority 2013, published 2014).

Key:
[1] = system: HIV-gp120 antigen; assay: Oral secretion SIgA antibody titers (ELISA) after vaccination of cats; format: in vivo, human immunodeficiency virus (HIV); settings: for SIgA anti-HIV-gp120: oral, Week 8, lowest dilution 1:4, elution factor 4-fold
Description: (§1) Animals: Eleven (11) female outbred cats>24 weeks old that were free of FIV, feline leukemia virus (FeLV) and feline infectious peritonitis virus were employed. The animals were restrained for the application of test articles to mucous membranes and collection of blood and mucosal secretions. Sedation, if necessary, was induced by subcutaneous administration of ketamine hydrochloride (22 mg/kg) and acepromazine maleate (0.1 mg/kg). Euthanasia was accomplished with a lethal overdose of barbiturates. All activities were approved by the Institutional Animal Care and Use Committee and supervised by veterinary staff.
(§2) Vaccine Preparation: Fel-O-Vax FIV (Fort Dodge Animal Health, Fort Dodge, Iowa) and A(1-7) was combined in a constant volume of 2% hydroxyethyl cellulose (2% HEC). The range of concentrations of A(1-7) ranged from 0 to 10 mg/mL with a constant 0.33 mL of Fel-O-Vax FIV suspended in each mL of the gel applied for vaccination purposes. Two control animals received intramuscular Fel-O-Vax FIV at baseline, week 3 and week 5. One control animal had mucosal vaccination with Fel-O-Vax alone suspended in the 2% HEC without A(1-7) and one control animal received intramuscular Fel-O-Vax FIV with 0.3 mg/kg of A(1-7) at baseline, week 3 and week 5.
(§3) Delivery of angiotensin(1-7) and FIV vaccine to mucosal surfaces: 2% HEC, a viscous gel, was used as the vehicle for the topical delivery of angiotensin(1-7) and FIV vaccine. The topical vaccine was applied to the mucosal surface weekly for 6 consecutive weeks. 1.0 mL was applied to the muzzle for oral mucosal vaccination and 1.0 mL and 0.2 mL was instilled in the rectal and vaginal vaults, respectively for mucosal vaccination at these sites.
(§4) Measurement of Local Immune Response: The Weck-Cel Surgical Spear (Windsor Biomedical, Newton, N.H.) was used to obtain secretions. Once inserted, the sponge is allowed to remain in place for 5 minutes. The secretions were extracted by centrifugation with 300 μL of a buffer solution. The buffer solution is prepared by mixing 50 μL of 100× protease inhibitor cocktail and 250 μL of 10% Igepal (Sigma, St Louis, Mo., U.S.A.) with 4.7 ml of phosphate-buffered saline (PBS) containing 0.25% bovine serum albumin (BSA, Fraction V; Sigma). The 100× protease inhibitor cocktail contains 100 μg/mL aprotinin, 500 μg/mL leupeptin, 100 μg/mL bestatin (all Sigma), and 50 μg/mL 4-(2-Aminoethyl)-benzenesulfonyl fluoride hydrochloride (Roche Applied Sciences, U.S.A.) in phosphate buffered saline.
(§5) The local immune response in mucosal secretions was evaluated against the homologous FIV-p24 antigen (Cell Biolabs, Inc, San Diego, Calif.) or the heterologous HIV-gp120 antigen (ImmunoDiagnostics, Inc, Woburn, Mass.). Plates were prepared with 50 ng/mL FIV-p24 antigen or with 500 ng/mL HIV-gp120 antigen (Bachem Americans, Inc, Torrance, Calif.) incubated over night at 4° C., washed and the target sample added and incubated overnight again at 4° C. The plates were washed and the indicator goat anti-feline IgG (Accurate Chemical & Scientific Corp., Westbury, N.Y., working titer 1:10,000) or goat anti-feline IgA (Accurate Chemical & Scientific Corp., Westbury, N.Y., working titer 1:1,000) added and incubated for 24 hours at 4° C. Following a final wash, substrate solution was added. The stop solution was added after 15 minutes for the IgG reaction and after 30 minutes for the IgA reaction. Plates were read at 450 nm.

[2] = system: FIV-p24 antigen; assay: as above; format: in vivo, feline immunodeficiency virus (FIV)
Description: as §1, §2, §3, §4, §5

[3] = system: FIV-p24 antigen; assay: Serum IgG antibody titers (ELISA) after vaccination of cats; format: in vivo, feline immunodeficiency virus (FIV); settings: for Serum IgG anti-FIVp24 antigen Titers: lowest dilution 1:20
Description: as §1, §2, §3, §5

[4] = system: HIV-gp120 antigen; assay: Vaginal secretion SIgA antibody titers (ELISA) after vaccination of cats; format: in vivo, human immunodeficiency virus (HIV); settings: for SIgA Anti-HIV gp120: vaginal, Week 8, lowest dilution 1:4, elution factor 300-fold
Description: as §1, §2, §3
Measurement of Local Immune Response: The Weck-Cel Surgical Spear (Windsor Biomedical, Newton, N.H.) was used to obtain secretions. […]
The local immune response in mucosal secretions was evaluated against the homologous FIV-p24 antigen (Cell Biolabs, Inc, San Diego, Calif.) or the heterologous HIV-gp120 antigen (ImmunoDiagnostics, Inc, Woburn, Mass.). […] Plates were read at 450 nm.

Question: Which results are given for “Asp-Arg-Val-Tyr-Ile-His-Pro (DRVYIHP) [A(1-7)]”?
Answer: SIgA-HIV-gp120 antibodies in oral secretions ([1]; A(1-7) combined with the intramuscular injections of Fel-O-Vax FIV): even higher titers; dose response of oral SIgA-anti-HIV-gp120 antibody titers ([1]; increasing A(1-7) concentrations in the topical vaccine): initial raise and then decline; SIgA anti-HIV-gp120 ([1]; topical Fel-O-Vax FIV + 7.5 A(1-7) in 2% HEC): Negative; SIgA anti-HIV-gp120 ([1]; topical Fel-O-Vax FIV + 10.0 A(1-7) in 2% HEC): Negative; SIgA-anti-HIV-gp120 antibody titers in oral secretions ([1]; topical application of the FIV antigen and A(1-7), compared with intramuscular): Comparable levels; SIgA Anti-FIV-p24 ([2]; IM Fel-O-Vax FIV + 0.3 mg/kg A(1-7), Week 2, lowest dilution Undilute): Negative; SIgA Anti-FIV-p24 ([2]; IM Fel-O-Vax FIV + 0.3 mg/kg A(1-7), Week 4, lowest dilution Undilute): Undilute; SIgA Anti-FIV-p24 ([2]; IM Fel-O-Vax FIV + 0.3 mg/kg A(1-7), Week 8, lowest dilution Undilute): Undilute; SIgA Anti-FIV-p24 ([2]; topical Fel-O-Vax FIV + 0.1 A(1-7) in 2% HEC, Week 2, lowest dilution Undilute): Negative; SIgA Anti-FIV-p24 ([2]; topical Fel-O-Vax FIV + 0.1 A(1-7) in 2% HEC, Week 4, lowest dilution Undilute): Negative; SIgA Anti-FIV-p24 ([2]; topical Fel-O-Vax FIV + 0.1 A(1-7) in 2% HEC, Week 6, lowest dilution Undilute): Undilute; SIgA Anti-FIV-p24 ([2]; topical Fel-O-Vax FIV + 0.1 A(1-7) in 2% HEC, Week 8, lowest dilution Undilute): Negative; SIgA Anti-FIV-p24 ([2]; topical Fel-O-Vax FIV + 0.2 A(1-7) in 2% HEC, Week 2, lowest dilution Undilute): Negative; SIgA Anti-FIV-p24 ([2]; topical Fel-O-Vax FIV + 0.2 A(1-7) in 2% HEC, Week 4, lowest dilution Undilute): Negative; SIgA Anti-FIV-p24 ([2]; topical Fel-O-Vax FIV + 0.2 A(1-7) in 2% HEC, Week 6, lowest dilution Undilute): Negative; SIgA Anti-FIV-p24 ([2]; topical Fel-O-Vax FIV + 0.2 A(1-7) in 2% HEC, Week 8, lowest dilution Undilute): Negative; SIgA Anti-FIV-p24 ([2]; topical Fel-O-Vax FIV + 0.3 A(1-7) in 2% HEC, Week 2, lowest dilution Undilute): Negative; SIgA Anti-FIV-p24 ([2]; topical Fel-O-Vax FIV + 0.3 A(1-7) in 2% HEC, Week 4, lowest dilution Undilute): Negative; SIgA Anti-FIV-p24 ([2]; topical Fel-O-Vax FIV + 0.3 A(1-7) in 2% HEC, Week 6, lowest dilution Undilute): Negative; SIgA Anti-FIV-p24 ([2]; topical Fel-O-Vax FIV + 0.3 A(1-7) in 2% HEC, Week 8, lowest dilution Undilute): Negative; SIgA Anti-FIV-p24 ([2]; topical Fel-O-Vax FIV + 0.4 A(1-7) in 2% HEC, Week 4, lowest dilution Undilute): Undilute; SIgA Anti-FIV-p24 ([2]; topical Fel-O-Vax FIV + 0.4 A(1-7) in 2% HEC, Week 6, lowest dilution Undilute): Negative; SIgA Anti-FIV-p24 ([2]; topical Fel-O-Vax FIV + 5.0 A(1-7) in 2% HEC, Week 2, lowest dilution Undilute): Undilute; SIgA Anti-FIV-p24 ([2]; topical Fel-O-Vax FIV + 7.5 A(1-7) in 2% HEC, Week 4, lowest dilution Undilute): Negative; SIgA Anti-FIV-p24 ([2]; topical Fel-O-Vax FIV + 10.0 A(1-7) in 2% HEC, Week 2, lowest dilution Undilute): Negative; SIgA Anti-FIV-p24 ([2]; topical Fel-O-Vax FIV + 10.0 A(1-7) in 2% HEC, Week 4, lowest dilution Undilute): Negative; SIgA Anti-FIV-p24 ([2]; topical Fel-O-Vax FIV + 10.0 A(1-7) in 2% HEC, Week 6, lowest dilution Undilute): Negative; SIgA Anti-FIV-p24 ([2]; topical Fel-O-Vax FIV + 10.0 A(1-7) in 2% HEC, Week 8, lowest dilution Undilute): Negative; Serum IgG anti-FIVp24 antigen Titers ([3]; topical Fel-O-Vax FIV + 0.1 A(1-7) in 2% HEC, Week 4): Negative; Serum IgG anti-FIVp24 antigen Titers ([3]; topical Fel-O-Vax FIV + 0.1 A(1-7) in 2% HEC, Week 8): Negative; Serum IgG anti-FIVp24 antigen Titers ([3]; topical Fel-O-Vax FIV + 0.2 A(1-7) in 2% HEC, Week 4): Negative; Serum IgG anti-FIVp24 antigen Titers ([3]; topical Fel-O-Vax FIV + 0.4 A(1-7) in 2% HEC, Week 4): Negative; Serum IgG anti-FIVp24 antigen Titers ([3]; topical Fel-O-Vax FIV + 0.4 A(1-7) in 2% HEC, Week 8): Negative; Serum IgG anti-FIVp24 antigen Titers ([3]; topical Fel-O-Vax FIV + 5.0 A(1-7) in 2% HEC, Week 2): Negative; Serum IgG anti-FIVp24 antigen Titers ([3]; topical Fel-O-Vax FIV + 5.0 A(1-7) in 2% HEC, Week 4): Negative; Serum IgG anti-FIVp24 antigen Titers ([3]; topical Fel-O-Vax FIV + 5.0 A(1-7) in 2% HEC, Week 6): Negative; Serum IgG anti-FIVp24 antigen Titers ([3]; topical Fel-O-Vax FIV + 5.0 A(1-7) in 2% HEC, Week 8): Negative; Serum IgG anti-FIVp24 antigen Titers ([3]; topical Fel-O-Vax FIV + 7.5 A(1-7) in 2% HEC, Week 2): Negative; Serum IgG anti-FIVp24 antigen Titers ([3]; topical Fel-O-Vax FIV + 7.5 A(1-7) in 2% HEC, Week 4): Negative; Serum IgG anti-FIVp24 antigen Titers ([3]; topical Fel-O-Vax FIV + 7.5 A(1-7) in 2% HEC, Week 6): Negative; Serum IgG anti-FIVp24 antigen Titers ([3]; topical Fel-O-Vax FIV + 7.5 A(1-7) in 2% HEC, Week 8): Negative; Serum IgG anti-FIVp24 antigen Titers ([3]; topical Fel-O-Vax FIV + 10.0 A(1-7) in 2% HEC, Week 2): Negative; Serum IgG anti-FIVp24 antigen Titers ([3]; topical Fel-O-Vax FIV + 10.0 A(1-7) in 2% HEC, Week 4): Negative; Serum IgG anti-FIVp24 antigen Titers ([3]; topical Fel-O-Vax FIV + 10.0 A(1-7) in 2% HEC, Week 6): Negative; Serum IgG anti-FIVp24 antigen Titers ([3]; topical Fel-O-Vax FIV + 10.0 A(1-7) in 2% HEC, Week 8): Negative; dose response effect on serum IgG antibody titers to FIVp24 antigen ([3]; topical vaccination, increasing dose levels of A(1-7)): no discernible dose response effect; SIgA-anti-HIV-gp120 antibodies in vaginal secretions ([4]; Topical application of FIV antigen with A(1-7)): substantial; SIgA Anti-HIV gp120 ([4]; topical Fel-O-Vax FIV + 0.1 A(1-7) in 2% HEC): Negative; SIgA Anti-HIV gp120 ([4]; topical Fel-O-Vax FIV + 5.0 A(1-7) in 2% HEC): Negative
